From US20120329813A1 (Cardoz AB, priority 2009, published 2012)

Legend:
CRP = conditions: subjects with prediabetes and elevated serum TNF-alpha; cited from earlier work
plasma CRP = experiment: Plasma CRP (high sensitivity CRP assay) in healthy volunteers treated perorally with pemirolast potassium for five days; format: in vivo, human
Protocol: (§1) Plasma CRP was determined with a high sensitivity CRP assay (based on Near Infrared Particle Immunoassay rate methodology) on a UniCel DxC 800 instrument from Beckman Coulter (analysis performed at the Department of Clinical Chemistry, Karolinska University Laboratory, Stockholm, Sweden). The degree of mast cell activity was determined by measuring plasma tryptase with the ImmunoCAP Tryptase Fluoro-Immuno-Enzymatic Assay on a ImmunoCAP 250 instrument from Phadia (analysis performed at Clinical Immunology and Transfusion Medicine, Karolinska University Laboratory, Stockholm, Sweden).

plasma tryptase = experiment: Plasma tryptase (ImmunoCAP Tryptase Fluoro-Immuno-Enzymatic Assay) in healthy volunteers before and after pemirolast treatment; format: in vivo, human
Protocol: as §1

[1] = system: plasma C-reactive protein (CRP); experiment: Plasma CRP (hsCRP assay) in a patient with coronary artery disease treated with pemirolast potassium for two weeks; format: in vivo, human; conditions: CAD patient, 30 mg b.i.d., 6.4 mg/L on Day 1 before the first dose
Protocol: The study was approved by the Swedish Medical Products Agency, and performed by Berzelius Clinical Research Centre AB in Linköping, Sweden (the clinic).
Plasma CRP was determined with the high sensitivity CRP (hsCRP) assay described in Example 1 above.
(§2) The first dose (3×10 mg) was administered in the morning of Day 1 at the clinic, the second dose in the evening of Day 1 at home, and then 3×10 mg b.i.d. at home during Days 2 to 14. The last dose was administered in the evening of Day 14 at home.
(§3) The CAD patient was a person with a body height of 188 cm and a body weight of 103 kg. They were on treatment with enalapril 20 mg QD (once daily) for hypertension since 2006. After a myocardial infarction in 2009, they were started on treatment with simvastatin 40 mg QD, acetylsalicylic acid 75 mg QD, and metoprolol 100 mg QD (all three drugs started in June 2009). Since January 2010, the patient was also treated with felodipin 5 mg QD. During the two week treatment with pemirolast, the patient continued to take these medications.

[2] = Safety in the CAD patient during the two week pemirolast treatment; format: in vivo, human; conditions: 30 mg b.i.d. for two weeks
Protocol: as §2, §3

[3] = human, in vivo, po
Protocol: During days 2-4, each subject received one dose in the morning and one dose in the evening with a time interval of 12 hours between the daily doses. […] Other than the occasional use of nasal decongestants or paracetamol, the subjects were instructed not to use other drugs, alcohol or nicotine during the study.

[4] = apparently healthy subjects with normal or low LDL cholesterol and elevated CRP; 1.9 years; cited from earlier work
hsCRP = conditions: patients with chronic obstructive pulmonary disease; cited from earlier work

In the case of CN1CCC(=C2c3ccccc3CC(=O)c3sccc32)CC1 [ketotifen], the “effect on CRP” value (CRP) is given as “not to reduce CRP”.

For Cc1cccn2c(=O)c(-c3nnn[nH]3)cnc12 [pemirolast], the “effect on CRP levels (FIG. 1)” value (plasma CRP; four subjects with baseline CRP >0.9 mg/L, 10, 30 or 50 mg day 1-5) was “markedly reduced”, the “mean CRP level at the end of the pemirolast treatment” value (plasma CRP; four subjects with baseline plasma CRP >0.9 mg/L, 10, 30 or 50 mg per os b.i.d. day 1-5, 1.8 mg/L before treatment, p<0.05) was 1.1 mg/L and the “mean CRP level at the end of the pemirolast treatment” value (plasma CRP; remaining subjects with baseline CRP below 0.9 mg/L (n=13), 0.32 mg/L before treatment) was 0.38 mg/L. The “effect on tryptase levels” value (plasma tryptase; four subjects with SLGI, plasma CRP >0.9 mg/L) was “did not reduce”, the “mean plasma tryptase level” value (plasma tryptase; four subjects with plasma CRP >0.9 mg/L, both before and after pemirolast treatment) was 4.8 µg/L and the CRP level ([1]; Day 8) was 4.0 mg/L. For the same molecule, the CRP level ([1]; morning of Day 15) was 1.8 mg/L, the adverse events [2] was “did not report any adverse events” and the “AUC and Cmax versus dose” value [3] was “increased in a dose-proportional manner”.

For CC(C)c1nc(N(C)S(C)(=O)=O)nc(-c2ccc(F)cc2)c1/C=C/[C@@H](O)C[C@@H](O)CC(=O)O [rosuvastatin], the “effect on cardiovascular morbidity/mortality” value [4] is given as “significantly reduces”.

In the case of Cn1c(=O)c2[nH]cnc2n(C)c1=O [theophylline], the “effect on hsCRP” value (hsCRP) is given as “not to reduce hsCRP”.
